From US8580783B2, “[1,2,4]triazolo [1,5-c]pyrimidine derivatives as Hsp90 modulators” (Nerviano Medical Sciences S.r.l., priority 2010, dated 2013)
pIC50: −log10 of the molar value.

System: Her2 protein levels in BT474 breast cancer cells
Experiment: Her2 degradation assay (marker for Hsp90 inhibition)
Format: cell-based
Details: Homo sapiens, BT-474, 8 hours with compound, Her2 immunocytochemistry, ArrayScan vTi
Description: Its inhibition impairs the capacity to fold or stabilize its client proteins, leading to the proteosomal dependent degradation of these unfolded proteins.
Cellular Her2 levels were measured by immunocytochemistry, and quantified using an ArrayScan vTi instrument (Cellomics Thermo Scientific).
Studies were performed as follows: 5000 cells/well are seeded in 96 well plates (Perkin Elmer) in DMEM/5% FCS and incubated for 48 hours at 37° C., 5% CO2.
Medium is then replaced with fresh medium containing test compounds at the required concentration. Concentration curves are prepared in DMEM/10% FCS from compound stocks in DMSO, and final DMSO concentration is 0.1% (v/v). Duplicate wells for each concentration point are prepared, with a typical highest compound concentration of 30 μM. […] Non-specific binding sites are blocked by incubating wells for 1 hour in PBS containing 3% (w/v) BSA. […] At least 10 fields, corresponding to at least 900 cells, are read for each well.

Nc1nc2c3c(F)cccc3nc(Cc3ccc4c(c3)OCO4)n2n1 [5-(1,3-benzodioxol-5-ylmethyl)-10-fluoro[1,2,4]triazolo[1,5-c]quinazolin-2-amine]
pIC50: 5.17
